According to patent US20180231524A1, “IN VITRO METHODS OF IDENTIFYING MODULATORS OF NEUROMUSCULAR JUNCTION ACTIVITY” (MEMORIAL SLOAN-KETTERING CANCER CENTER, priority 2015, published 2018):

Experiments:
rodent GSK3β homologs = details: cited from earlier work
[1] = system: co-cultures of MNs with adult-derived myoblasts (hMA); assay: myasthenia gravis model: light-induced muscle contraction in co-cultures; format: cell-based, human; details: PYR 10 μM on day 3; cultures treated with MG IgG (#1 & 2 combined) and complement; n=8
Description: Next we sought to address whether the functional neuromuscular co-cultures were suitable to model a classic human neuromuscular disease. Myasthenia gravis (MG) (Toyka et al., 1977; Verschuuren et al., 2013) is caused by the emergence of autoantibodies against proteins in the neuromuscular junction (e.g. the acetylcholine receptor, AChR). Binding of the pathogenic antibody to AChR activates the complement cascade, resulting in destruction of the neuromuscular endplate (Sahashi et al., 1980), which ultimately causes progressive muscle weakness in patients. We therefore quantified light-induced muscle contractions in functional co-cultures of MNs with adult-derived myoblasts (hMA) before (FIG. 4A, D) and after the incubation with IgG fractions (200 nM total IgG) from two MG patients with clearly elevated AChR antibody titers (#1 and #2). Sandoglobulin (SG) polyvalent IgG served as control. […] Next, we assessed if the myasthenic phenotype was reversible after washout of MG IgG and complement, mimicking plasmapheresis therapy (Gold et al., 2008). […]
Maturing co-cultures were observed under 10× brightfield illumination while intermittently opening the shutter for fluorescent light (470 nm, 2mW/mm^2, approx. 300 ms pulse). […] For the quantification of movement multiple representative high contrast regions were automatically traced (MetaMorph Software). […]

[2] = system: myofibers in MN co-cultures with adult muscle (hMA); assay: myasthenia gravis model: calcium imaging; format: cell-based, human; details: MG#1 IgG and complement cultures
Protocol: To further characterize the myasthenic phenotype we performed calcium imaging experiments. […] Therefore cultures were pretreated with control and MG#1 IgG and human complement for 2 days. Calcium imaging was performed in regions with similar amounts of muscle fibers and dense innervation (FIG. 4K, L). […] In addition, the percentage of reactive fibers was reduced in cultures treated with MG#1 IgG and complement compared to controls (FIG. 4N, CTRL 78% vs. MG 32%, two-tailed unpaired t test, p<0.001, t=4.79). […] Finally we sought to confirm the complement attack on the neuromuscular junction. For this purpose, cultures treated with MG#1 IgG and human complement as well as cultures treated with CTRL IgG and human complement for 24 h were stained with an antibody recognizing the human complement fragment C3c. […] (FIG. 4O, P).
(§1) Myotubes or co-cultures on glass coverslips were incubated with the ratiometric calcium dye Fura-2 and imaged under continuous perfusion in normal Tyrode's solution. Myotubes were stimulated by acetylcholine. Co-cultures were illuminated for optogenetic stimulation for 10 ms at 470 nm (4 mW/mm2) every 5 s.
Serum (containing complement) from 5 healthy donors was pooled and added to the media where indicated (2% v/v). […]

[3] = system: co-cultures of ChR2-expressing hESC-derived spinal motorneurons with human adult (hMA) and fetal (hMF) myofibers; assay: light-induced muscle twitches in neuromuscular co-cultures; format: cell-based; details: 2 μM, optogenetic stimulation 470 nm, all tested cultures
Protocol: To establish the neuromuscular co-culture, we used the purified ChR2-expressing spinal motorneurons (day 20-25) and plated them onto pre-differentiated skeletal myofibers (day 5-10). After plating, hESC-derived spinal MN cell bodies mostly remained within the neuronal clusters but extended axons across the adult and fetal muscle (up to 2 mm within the first week, FIG. 3A, E). Co-cultures were tested for the establishment of neuromuscular connectivity in weekly intervals. For this purpose the cultures were observed under bright field illumination and intermittently stimulated with blue light pulses. Six to eight weeks after initiation of the co-culture, the elongated cylindrical myoblast-derived muscle fibers remained morphologically intact and started to contract in response optogenetic stimulation (470 nm, 0.2 Hz, 300 ms pulse width). FIGS. 3B, F show mature co-cultures with both muscle types. FIG. 3C, G show the quantification of muscle twitches of individual fibers from such cultures. The lower panels show long term experiments over 8.5 min (FIG. 3C at 0.2 Hz, FIG. 3G at 0.1 Hz). […]
Maturing co-cultures were observed under 10× brightfield illumination while intermittently opening the shutter for fluorescent light (470 nm, 2mW/mm^2, approx. 300 ms pulse). […] For the quantification of movement multiple representative high contrast regions were automatically traced (MetaMorph Software).

[4] = system: myofibers in functional neuromuscular co-cultures; assay: calcium imaging in neuromuscular co-cultures under optogenetic stimulation; format: cell-based, human; details: 470 nm optogenetic stimulation, Fura2; 6/6 cultures
Protocol: (§2) We next characterized key physiologic parameters in the functional neuromuscular cultures. Matured co-cultures were incubated with the calcium dye Fura2 and mounted into an imaging chamber for continuous perfusion. […] The lower panel of FIG. 3J confirms long-term stability of neuro-muscular excitability in a calcium imaging experiment over 45 minutes. In a separate study, skeletal myotubes (n=5), identified by their cylindrical and striated appearance under phase contrast microscopy and by their ability to undergo light-induced twitching were selected for intracellular recordings (FIG. 3K). Light-responsive myotubes were impaled with sharp electrodes and muscle APs were recorded during 447 nm optogenetic stimulation at frequencies from 0.2 to 2 Hz. Spike fidelity was 100% at 0.2 Hz, 93.3±6.7% at 0.5 Hz, 75±15.0% at 1 Hz and 80±10.0% at 2 Hz. […] To address the stability of neuromuscular connectivity over the course of several days and weeks, contractile regions (n=7) were assessed every 5 days.
as §1

[5] = system: light-responsive skeletal myotubes in neuromuscular co-cultures; assay: sharp electrode recording of light-induced myofiber action potentials; format: cell-based, human; details: 2 μM; 447 nm optogenetic stimulation 0.2 to 2 Hz
Protocol: as §2
On matured EYFP+ MNs whole-cell current clamp recordings were performed at room temperature. Light-evoked APs were elicited using a 447 nm diode laser (OEM Laser) with light pulses of 5 ms at approximately 1 mW/mm2. Myotubes contracting in response to light stimulation were impaled with a sharp electrode for intracellular recordings.

Compound: Cc1c[nH]c(-c2cnc(NCCNc3ccc(C#N)cn3)nc2-c2ccc(Cl)cc2Cl)n1 [CHIR99021, 6-(2-(4-(2,4-dichlorophenyl)-5-(4-methyl-1H-imidazol-2-yl)pyrimidin-2-ylamino)ethylamino)nicotinonitrile]
- IC50 values against rodent GSK3β homologs (rodent GSK3β homologs): nanomolar

Compound: CN(C)C(=O)Oc1ccc[n+](C)c1 [pyridostigmine]
- change of movement after pyridostigmine in MG cultures [1]: +22%
- percentage of reactive fibers after PYR in MG cultures [2]: tendency towards a higher percentage of reactive fibers, which did not reach significance
- light-induced calcium spike after PYR in MG cultures ([2]; n=8): small but significant increase

Compound: CC(=O)O[C@H]1C[C@@H]2CC[C@@H]3[C@H](CC[C@@]4(C)[C@H]3C[C@H]([N+]3(C)CCCCC3)[C@@H]4OC(C)=O)[C@@]2(C)C[C@@H]1N1CCCCC1 [vecuronium]
- light induced muscle twitches [3]: completely blocked
- light induced muscle twitches ([3]; listed as Vecuronium): blocks light-evoked contractility
- light-evoked calcium spikes in myofibers [4]: could be blocked
- light-induced APs in myofibers [5]: completely blocked light-induced APs in myofibers in a reversible manner
